Reference: US20260199505A1, “COMBINATION THERAPY COMPRISING BISPECIFIC ANTIBODIES COMPRISING AN NRP1 BINDING DOMAIN” (Pinetree Therapeutics, Inc., priority 2022, published 2026)
Where a name gives a salt, the structure may show the parent alone.

Columns and labels:
H1975 = H1975 (Osimertinib-sensitive, parental) xenograft mouse model; type: in vivo; details: 3 mg/kg Osimertinib
Text: (§2) In this example, a modified version of the H1975 xenograft model was used in which the tumor cells were engineered to overexpress NRP1.

H1975-OR = assay: Osimertinib-resistant mouse xenograft model (H1975-OR); type: in vivo; details: Osimertinib dose of 3 mg/kg
Text: Panitumumab is a fully humanized anti-EGFR monoclonal antibody, which binds to EGFR and block the EGFR signaling. Osimertinib is an EGFR tyrosine kinase inhibitor.

H1975-HGF = H1975-HGF (HGF-overexpressing) xenograft model; type: in vivo, mouse; details: for tumor volume over time (FIG. 6A): first set, Panitumumab 5 mg/kg, EGFR degrader 6.87 mg/kg, Amivantamab 5.05 mg/kg i.p. BIW, Osimertinib 3 mg/kg i.p. QD; for tumor volume over time (FIG. 6B): second set, Osimertinib 10 mg/kg i.p. QD, Crizotinib 20 mg/kg i.p. QD, EGFR degrader 15 mg/kg i.p. QW
Procedure: (§1) The H1975-HGF cell line was prepared by recombinantly engineering the H1975 cell line to express HGF by standard methods. Thus, the H1975-HGF xenograft model represents a dual activation model in which both the EGFR and cMET pathways are constitutively activated.

H1975-NRP1 OE = H1975-NRP1 OE (NRP1-overexpressing) xenograft model; details: 3 mg/kg Osimertinib
Text: as §2

HGF/cMET pathway = HGF/cMET pathway inhibition in H1975 cells; type: cell-based; details: data not shown
Procedure: as §1

C=CC(=O)Nc1cc(Nc2nccc(-c3cn(C)c4ccccc34)n2)c(OC)cc1N(C)CCN(C)C [Osimertinib, N-(2-{2-dimethylaminoethyl-methylamino}-4-methoxy-5-{[4-(1-methylindol-3-yl)pyrindin-2-yl]amino}phenyl)prop-2-enamide mesylate salt]
tumor response (H1975): strong and persistent tumor regression | anti-tumor activity (H1975-OR): did not show anti-tumor activity | tumor volume over time (FIG. 6A) (H1975-HGF): exhibited resistance | tumor volume over time (FIG. 6B) (H1975-HGF): did not prevent tumor growth over time | tumor response (H1975-NRP1 OE): significant tumor progression

C[C@@H](Oc1cc(-c2cnn(C3CCNCC3)c2)cnc1N)c1c(Cl)ccc(F)c1Cl [Crizotinib]
tumor volume over time (FIG. 6B) (H1975-HGF): limited efficacy | cMET pathway signaling (HGF/cMET pathway): blocked cMET pathway signaling

Panitumumab: fully humanized anti-EGFR monoclonal antibody, which binds to EGFR and block the EGFR signaling
tumor volume over time (FIG. 6A) (H1975-HGF): exhibited resistance

B1: Amivantamab: an EGFR×cMET bispecific antibody construct (antibody, chains of the INN, looked up, V domains shown)
VH: QVQLVESGGGVVQPGRSLRLSCAASGFTFSTYGMHWVRQAPGKGLEWVAVIWDDGSYKYYGDSVKGRFTISRDNSKNTLYLQMNSLRAEDTAVYYCARDGITMVRGVMKDYFDYWGQGTLVTVSS
VL: AIQLTQSPSSLSASVGDRVTITCRASQDISSALVWYQQKPGKAPKLLIYDASSLESGVPSRFSGSESGTDFTLTISSLQPEDFATYYCQQFNSYPLTFGGGTKVEIK
VH2: QVQLVQSGAEVKKPGASVKVSCETSGYTFTSYGISWVRQAPGHGLEWMGWISAYNGYTNYAQKLQGRVTMTTDTSTSTAYMELRSLRSDDTAVYYCARDLRGTNYFDYWGQGTLVTVSS
VL2: DIQMTQSPSSVSASVGDRVTITCRASQGISNWLAWFQHKPGKAPKLLIYAASSLLSGVPSRFSGSGSGTDFTLTISSLQPEDFATYYCQQANSFPITFGQGTRLEIK
cMET degradation (HGF/cMET pathway): led to cMET degradation | cMET pathway signaling (HGF/cMET pathway): blocked cMET pathway signaling
